The results in this text go back to patent US20070027118A1 (priority 2005, published 2007).

The target in assay [1] is T1, 11β-hsd-1 enzyme (Homo sapiens, UniProt P28845). Kind of assay: biochemical. The settings on record: for inhibition at 0.1 µM: read-out: % Inh @ 0.1 μM. The protocol: Percentage of inhibition was determined in a 100 mM Triethanolamine buffer, pH 8.0, 200 mM NaCl, 0.02% n-dodecyl β-D-maltoside and 5 mM β-ME. A typical reaction was carried on a Corning® u-bottom 96-well plate and is described as follows: 11β-hsd-1 enzyme (5 nM, final concentration) was pre-incubated in the presence of the inhibitor and NADPH (500 μM, final concentration) for at least 30 minutes
in the assay buffer. When pre-incubation was completed, the reaction was initiated by adding the regenerating system (2 mM Glucose-6-Phosphate, 1U/mL Glucose-6-Phosphate dehydrogenase, and 6 mM MgCl2, all the concentration reported are final in the assay buffer), and 3H-cortisone (200 nM, final concentration). After 60 minutes, 60 μL of the assay mixture was transferred to a second 96-well plate and mixed with an equal volume of dimethylsulfoxide to stop the reaction. A 15 μL aliquot from the reaction mixture was loaded into a C-18 column (Polaris C18-A, 50×4.6 mm, 5 μ, 180 Angstrom from Varian) connected to an automated High-throughput Liquid Chromatography instrument developed by Cohesive Technologies Inc of Franklin, Mass., with a […] model 3 Radio-HPLC detector from IN/US of Tampa, Fla. The substrate and product peaks were separated by using an isocratic mixture of 43:57 methanol to water (v/v) at a flow rate of 1.0 mL/min.
Percent Inhibition was calculated based on the following equation: (1-(3H-Cortisol peak area in the […] of inhibitor)×100).

Assay [2] addresses T1, 11β-hsd-1 enzyme. In words: biochemical. As for the experimental part: The 11β-hsd-1 assay was performed in a 100 mM Triethanolamine buffer pH 8.0, containing 200 mM NaCl, 0.02% n-dodecyl β-D-maltoside, 5% glycerol, 5 mM β-mercaptoethanol. A typical reaction for the determination of Kiapp values was carried at R.T. in a Corning® u-bottom 96-well plate and is described as follows: 11β-hsd-1 enzyme (5 nM, final concentration) was pre-incubated in the presence of the inhibitor and NADPH (500 μM, final concentration) for at least 30 minutes in the assay buffer. When pre-incubation was completed, the reaction was initiated by adding the regenerating system (2 mM Glucose-6-Phosphate, 1U/mL Glucose-6-Phosphate dehydrogenase, and 6 mM MgCl2, all the concentration reported are final in the assay buffer), and 3H-cortisone (200 nM, final concentration). After 60 minutes, 60 μL of the assay mixture was transferred to a second 96-well plate and mixed with an equal volume of dimethylsulfoxide to stop the reaction. A 15 μL aliquot from the reaction mixture was loaded into a C-18 column (Polaris C18-A, 50×4.6 mm, 5 μ, 180 Angstrom from Varian) connected to an automated High-throughput Liquid Chromatography instrument developed by Cohesive Technologies Inc, of Franklin, Mass. USA, with a β-RAM model 3 Radio-HPLC detector from IN/US, of Tampa, Fla. USA. The substrate and product peaks were separated by using an isocratic mixture of 43:57 methanol to water (v/v) at a flow rate of 1.0 mL/min.
The initial reaction velocities were measured by stopping the reaction at 60 min and by measuring the area of product formation in the absence and the presence of various concentrations of inhibitors. The Kiapp values were determined using the equation for tight-binding inhibitor developed by Morrison, J. F. (Morrison J. F. Biochim BiophysActa. 1969; 185: 269-86).
The radiolabeled [1,2-3H]-cortisone is commercially available from American Radiolabeled Chemicals Inc of St. Louis, Mo. USA. NADPH, Glucose-6-Phosphate, and Glucose-6-Phosphate dehydrogenase were purchased from Sigma®.
(Morrison J. F. Biochim Biophys Acta. 1969; 185: 269-86).

Each structure is given as a SMILES string.

T1 sequence (P28845 whole entry, species assumed): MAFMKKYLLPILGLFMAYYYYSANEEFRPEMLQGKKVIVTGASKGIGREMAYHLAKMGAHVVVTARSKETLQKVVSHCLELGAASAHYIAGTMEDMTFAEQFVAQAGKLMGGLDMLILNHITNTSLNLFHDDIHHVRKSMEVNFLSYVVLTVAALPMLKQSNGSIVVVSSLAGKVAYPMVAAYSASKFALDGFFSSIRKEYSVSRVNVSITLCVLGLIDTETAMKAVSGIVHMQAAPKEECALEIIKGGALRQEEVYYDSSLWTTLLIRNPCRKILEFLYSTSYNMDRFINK

`CCc1cccc(NS(=O)(=O)N2CCC(c3ccnc(N(C)C)n3)CC2)n1` [Example 81, 4-[2-(dimethylamino)pyrimi-din-4-yl]-N-(6-ethylpyridin-2-yl)piperidine-1-sulfonamide]: in assay [1] (read-out: % Inh @ 0.1 mM), the inhibition worked out at 86.8%. The Ki (in general, a measure of affinity in units of concentration, obtained from inhibition or displacement) in assay [2] was determined as 0.23 µM.
As to `COc1cccc(N2CCN(S(=O)(=O)Nc3cccc(C)n3)CC2)n1` [Example 136, 4-(6-methoxypyridin-2-yl)-N-(6-methylpyridin-2-yl)piperazine-1-sulfonamide], the inhibition in assay [1] (read-out: % Inh @ 0.1 mM) is 93.7%. In assay [2], this compound showed a Ki of 0.0065 µM.
Regarding `O=S(=O)(Nc1ccc2ccccc2n1)N1CCCN(c2nc3cc(Cl)ccc3o2)CC1` [Example 180, 4-(5-chloro-13-benzoxazol-2-yl)-N-quinolin-2-yl-14-diazepane-1-sulfonamide], in assay [1] (read-out: % Inh @ 0.1 mM), the inhibition came to 100%. Further, the Ki in assay [2] is 0.02 µM.
Regarding `O=S(=O)(Nc1ccc2ccccc2n1)N1CCCCCC1` [Example 157, N-quinolin-2-ylazepane-1-sulfonamide], the inhibition at 100 µM in assay [1] (Table 2, inhibitor 0.1 mM as printed, read-out: % Inh @ 0.1 mM) came to 100%. The compound also came in with a Ki in assay [2] of 0.032 µM.
Consider `CCc1cccc(NS(=O)(=O)N2CCN(c3ncc(-c4ccc(OC)cc4)cn3)CC2)n1` [Example 144, N-(6-ethylpyridin-2-yl)-4-[5-(4-methoxyphenyl)pyrimidin-2-yl]piperazine-1-sulfonamide], for which the inhibition in assay [1] (read-out: % Inh @ 0.1 mM) stood at 100%. For the same compound, in assay [2], the inhibition constant Ki stood at 0.001 µM.
Take `C[C@@H]1CN(S(=O)(=O)Nc2cccc(CO)n2)CCN1c1ncc(F)cn1` [Example 40, (3R)-4-(5-fluoropyrimidin-2-yl)-N-[6-(hydroxymethyl)pyridin-2-yl]-3-methylpiperazine-1-sulfonamide]: the inhibition at 0.1 µM in assay [1] was 100%.
For the compound `O=S(=O)(Nc1ccc2ccccc2n1)N1CCCN(c2ncccn2)CC1` [Example 163, 4-pyrimidin-2-yl-N-quinolin-2-yl-14-diazepane-1-sulfonamide], in assay [1] (read-out: % Inh @ 0.1 mM), the inhibition was determined as 10.5%.
Take `O=S(=O)(Nc1ccc2ncccc2n1)N1CCC(c2ccc(C(F)(F)F)cn2)CC1` [Example 36, N-1,5-naphthyridin-2-yl-4-[5-(trifluoromethyl)pyridin-2-yl]piperidine-1-sulfonamide]: in assay [1], the inhibition at 0.1 µM is 89%.
On to `CCc1cccc(NS(=O)(=O)N2CCN(c3ccc(C)cc3)C(=O)C2)n1` [Example 189, N-(6-ethylpyridin-2-yl)-4-(4-methylphenyl)-3-oxopiperazine-1-sulfonamide], for which, in assay [1] (read-out: % Inh @ 0.1 mM), the inhibition stood at 24.9%.
Same read-out and setting: then `CCc1cccc(NS(=O)(=O)N2CCC(COCc3cccc(OC)c3)CC2)n1` [Example 94, N-(6-ethylpyridin-2-yl)-4-{[(3-methoxybenzyl)oxy]-methyl}pipendine-1-sulfonamide], with 40.7%.
Same read-out and setting: the result for `CCc1cccc(NS(=O)(=O)N2CCC(c3ccc(C(=O)NC4CC4)cc3)CC2)n1` [Example 78, N-cyclopropyl-4-(1-{[(6-ethylpyridin-2-yl)amino]sulfonyl}piperi-din-4-yl)benzamide] reads 64.2%.
On to `Cc1cc(N)nc(NS(=O)(=O)N2CCn3c(nc4ccccc43)C2)c1` [Example 50], for which the inhibition at 0.1 µM in assay [1] is 100%.
Turning to `CCc1cccc(NS(=O)(=O)N2CCC(c3ncccn3)CC2)n1` [Example 60, N-(6-ethylpyridin-2-yl)-4-pyrimidin-2-ylpiperidine-1-sulfonamide], the inhibition at 0.1 µM in assay [1] was determined as 7%.
On to `CCc1cccc(NS(=O)(=O)N2CCC(c3ccc(C(=O)N4CCOCC4)cc3)CC2)n1` [Example 77, N-(6-ethylpyridin-2-yl)-4-[4-(morpholin-4-ylcarbonyl)phenyl]piperi-din-1-sulfonamide], for which the inhibition in assay [1] (read-out: % Inh @ 0.1 mM) was determined as 48.4%.
Regarding `Cc1cc(N)nc(NS(=O)(=O)N2CCn3c(nc4cccc(C)c43)C2)c1` [Example 49], the inhibition at 0.1 µM in assay [1] was determined as 100%.
In the case of `CCc1cccc(NS(=O)(=O)N2CCN(c3ccc(C(=O)N4CCOCC4)cn3)CC2)n1` [Example 147, N-(6-ethylpyridin-2-yl)-4-[5-(morpholin-4-ylcarbonyl)pyridin-2-yl]piperazine-1-sulfonamide], in assay [1] (read-out: % Inh @ 0.1 mM), the inhibition came out at 27.2%.
`CCc1cccc(NS(=O)(=O)N2CCC(COCc3ccccc3F)CC2)n1` [Example 92, N-(6-ethylpyridin-2-yl)-4-{[(2-fluorobenzyl)oxy]meth-yl}piperidine-1-sulfonamide]: the inhibition in assay [1] (read-out: % Inh @ 0.1 mM) is 67.5%.
Consider `Cc1cccc(NS(=O)(=O)N2CCN(c3nc4ncccc4o3)CC2)n1` [Example 152, N-(6-methylpyridin-2-yl)-4-[13]oxazolo[45-b]pyridin-2-ylpiperazine-1-sulfonamide], for which, in assay [1] (read-out: % Inh @ 0.1 mM), the inhibition amounted to 47.6%.
Same read-out and setting: then `CCc1cccc(NS(=O)(=O)N2CCN(c3cc(C#N)ccn3)CC2)n1` [Example 184, 4-(4-cyanopyridin-2-yl)-N-(6-ethylpyridin-2-yl)piperazine-1-sulfonamide], with 16.8%.
Turning to `CCc1cccc(NS(=O)(=O)N2CCN(C(C)C)CC2)n1` [Example 61], the inhibition at 0.1 µM in assay [1] amounted to 0%.
In the case of `Cc1cc(N)nc(NS(=O)(=O)N2CCn3c(-c4ccccc4)cnc3C2)c1` [Example 52], the inhibition at 0.1 µM in assay [1] was found to be 100%.
Turning to `CCc1cccc(NS(=O)(=O)N2C[C@@H]3C[C@H]2CN3c2ccccc2)n1` [Example 69], the inhibition at 0.1 µM in assay [1] was 5.6%.
In the case of `Cc1cc(N)cc(NS(=O)(=O)N2CCC(Oc3ccccc3F)CC2)c1` [Example 53], the inhibition at 0.1 µM in assay [1] came to 100%.
Take `CCc1cccc(NS(=O)(=O)N2CCN(c3ccc(C(=O)NC(C)C)cn3)CC2)n1` [Example 146, 6-(4-{[(6-ethylpyridin-2-yl)amino]sulfonyl)piperazin-1-yl)-N-isopropylnicotinamide]: in assay [1] (read-out: % Inh @ 0.1 mM), the inhibition amounted to 30.4%.
Consider `O=S(=O)(Nc1ccc2ccccc2n1)N1CCN(c2ncccc2C(F)(F)F)CC1` [Example 159, N-quinolin-2-yl-4-[3-(trifluoromethyl)pyridin-2-yl]piperazine-1-sulfonamide], for which, in assay [1] (read-out: % Inh @ 0.1 mM), the inhibition stood at 53.4%.
For the compound `Cc1cc(N)nc(NS(=O)(=O)N2CCn3c(nc4cc(C(F)(F)F)ccc43)C2)c1` [Example 47], the inhibition at 0.1 µM in assay [1] amounted to 100%.
For the compound `O=S(=O)(Nc1ccc2ccccc2n1)N1CCN(c2cnccn2)CC1` [Example 158, 4-pyrazin-2-yl-N-quinolin-2-ylpiperazine-1-sulfonamide], the inhibition in assay [1] (read-out: % Inh @ 0.1 mM) is 44.8%.
With `CCc1cccc(NS(=O)(=O)N2CCN(c3nc(C)cc(CC(C)C)n3)CC2)n1` [Example 143, N-(6-ethylpyridin-2-yl)-4-(4-isobutyl-6-methylpyrimidin-2-yl)piperazine-1-sulfonamide], in assay [1] (read-out: % Inh @ 0.1 mM), the inhibition was determined as 36.7%.
As to `Cc1cccc(NS(=O)(=O)N2CCN(c3ccccn3)CC2)n1` [Example 126, N-(6-methylpyridin-2-yl)-4-pyridin-2-ylpiperazine-1-sulfonamide], the inhibition in assay [1] (read-out: % Inh @ 0.1 mM) was 57.8%.
In the case of `CCCOC1CCN(S(=O)(=O)Nc2cccc(CC)n2)CC1` [Example 111, N-(6-ethylpyridin-2-yl)-4-propoxypiperidine-1-sulfonamide], the inhibition in assay [1] (read-out: % Inh @ 0.1 mM) turned out to be 50.8%.
The same measure, in the same setting: the result for `CCc1cccc(NS(=O)(=O)N2CCC(c3cccc(C(=O)N(CC)CC)c3)CC2)n1` [Example 79, NN-diethy-3-(1-{[(6-ethylpyridin-2-yl)amino]sulfonyl}piperidin-4-yl)benzamide] reads 51.1%.
For the compound `C[C@H]1CN(S(=O)(=O)Nc2cccc(CO)n2)CCN1c1ccc(C#N)cn1` [Example 58, (3S)-4-(5-cyanopyridin-2-yl)-N-[6-(hydroxymethyl)pyridin-2-yl]-3-methylpiperazine-1-sulfonamide], the inhibition at 0.1 µM in assay [1] is 100%.
The same measure, in the same setting: then `Cc1cc(N)cc(NS(=O)(=O)N2CCC(C(F)(F)F)CC2)c1` [Example 56], with 100%.
